From article PMC5193077, “An Allosteric Potentiator of the Dopamine D1 Receptor Increases Locomotor Activity in Human D1 Knock-In Mice without Causing Stereotypy or Tachyphylaxis” (The Journal of Pharmacology and Experimental Therapeutics, 2017)

Tests used:
hD1 mice = experiment: Video-tracking of horizontal motion, rearing and grooming in hD1 mice; format: in vivo, mouse
Text: The apparatus for the video-tracking assessment experiment included 12 custom-built video-tracking observation chambers and the HomeCageScan (CleverSys, Reston, VA) software system. The chambers, measuring (in inches) 8 width × 10 length × 8 height, consisted of two end walls, a back wall, a top, and a floor constructed of ¼-in. translucent white acrylic, and one side (front) constructed of clear acrylic. LED strip lighting was placed below the chamber for illumination. A color video camera (640 × 480, 30 frames per second) was placed in front of each chamber to record behavior from a side view. The chambers were located in large sound-attenuating chambers to reduce ambient room noise and isolate lighting. The cameras were connected in groups of four to a quad multiplexer (model NVQC-42N; Nuvico, Englewood, NJ), with each multiplexer connected to its own computer, which then recorded each session to an MPEG file.
At the end of the experiment the files were batch-analyzed by a computer running the CleverSys CageScan video-tracking software. This software can recognize and quantify several different behaviors, including LMA, grooming, rearing, immobility, and feeding behaviors. The current experiment examined behavior in a novel open-field environment rather than home-cage activity, which limited behaviors of interest to LMA, grooming, and rearing.
For HomeCageScan behavioral phenotyping, male D1 knock-in mice (8–12 weeks, 20–25 g body weight) were placed into the observation chambers for a 60-minute habituation session. […] All behavioral activity was monitored and scored by the HomeCageScan system.

human D1 receptor = human D1 receptor (Homo sapiens, UniProt P21728); experiment: cAMP potentiation, transiently expressed human D1 receptor in HEK293 cells; format: cell-based; conditions: Human D1, transient
human D5 receptor = target: T1, human D5 receptor (Homo sapiens, UniProt P21918); experiment: cAMP response in hD5 CHO cells; format: cell-based
T1 construct: host or cells: CHO
Method: A Chinese hamster ovary (CHO) cell line expressing the human D5 receptor was purchased from DiscoveRx (Fremont, CA) (product no. 92-1043). The hD5 assay was performed in the same way as the hD1 assay except that the EC20 concentration of dopamine was 2 nM.

[1] = target: T2, rhesus monkey D1 receptor (Macaca mulatta, UniProt O77680); experiment: cAMP potentiation, transiently expressed rhesus monkey D1 receptor in HEK293 cells; format: cell-based; conditions: Rhesus D1, transient
T2 construct: expressed in transfected cells; host or cells: HEK293, transient (Fugene HD)

5HT2B receptor = 5HT2B receptor (Homo sapiens, UniProt P41595); experiment: Standard Lilly selectivity panel, 5HT2B receptor
5HT2B receptor, sequence (P41595 whole entry): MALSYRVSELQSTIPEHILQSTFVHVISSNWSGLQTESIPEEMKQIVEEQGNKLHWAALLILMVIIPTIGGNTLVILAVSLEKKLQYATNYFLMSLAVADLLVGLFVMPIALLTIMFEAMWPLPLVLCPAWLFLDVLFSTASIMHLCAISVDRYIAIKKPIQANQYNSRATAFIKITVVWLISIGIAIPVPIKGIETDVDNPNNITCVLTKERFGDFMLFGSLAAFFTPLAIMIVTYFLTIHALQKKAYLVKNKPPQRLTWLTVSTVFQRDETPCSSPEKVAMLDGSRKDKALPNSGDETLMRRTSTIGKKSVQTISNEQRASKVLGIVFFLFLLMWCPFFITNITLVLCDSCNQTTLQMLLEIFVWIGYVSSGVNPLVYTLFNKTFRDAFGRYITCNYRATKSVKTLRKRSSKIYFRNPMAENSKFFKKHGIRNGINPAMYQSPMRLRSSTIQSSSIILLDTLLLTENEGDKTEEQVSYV

human D1 receptor, sequence (P21728 whole entry): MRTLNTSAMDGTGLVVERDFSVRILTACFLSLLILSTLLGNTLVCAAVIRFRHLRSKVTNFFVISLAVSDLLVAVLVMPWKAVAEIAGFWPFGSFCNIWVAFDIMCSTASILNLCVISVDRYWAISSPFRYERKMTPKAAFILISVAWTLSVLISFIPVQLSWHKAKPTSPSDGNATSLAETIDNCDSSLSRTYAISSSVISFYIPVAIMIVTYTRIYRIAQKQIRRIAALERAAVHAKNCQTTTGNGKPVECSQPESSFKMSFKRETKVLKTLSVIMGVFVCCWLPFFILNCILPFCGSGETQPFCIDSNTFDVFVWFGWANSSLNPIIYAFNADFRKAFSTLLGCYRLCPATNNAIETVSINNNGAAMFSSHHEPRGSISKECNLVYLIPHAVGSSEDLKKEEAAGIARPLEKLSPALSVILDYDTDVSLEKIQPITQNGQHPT
T2 sequence (O77680 whole entry): as the sequence (P21728 whole entry) above, with N311I counted along it
T1 sequence (P21918 whole entry): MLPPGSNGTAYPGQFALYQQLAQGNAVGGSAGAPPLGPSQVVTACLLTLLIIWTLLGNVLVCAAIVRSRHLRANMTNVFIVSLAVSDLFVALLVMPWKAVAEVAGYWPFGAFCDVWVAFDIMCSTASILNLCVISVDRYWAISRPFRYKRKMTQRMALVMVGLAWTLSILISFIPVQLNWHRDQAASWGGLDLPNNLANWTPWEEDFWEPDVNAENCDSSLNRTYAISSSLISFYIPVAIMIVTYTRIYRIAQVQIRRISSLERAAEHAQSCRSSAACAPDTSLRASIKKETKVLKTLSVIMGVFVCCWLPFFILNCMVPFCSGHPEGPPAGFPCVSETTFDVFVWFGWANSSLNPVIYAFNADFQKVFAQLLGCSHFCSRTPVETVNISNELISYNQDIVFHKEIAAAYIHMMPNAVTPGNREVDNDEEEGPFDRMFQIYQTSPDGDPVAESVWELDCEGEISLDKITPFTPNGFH

SMILES: C[C@H]1c2cccc(C(C)(C)O)c2C[C@H](CO)N1C(=O)Cc1c(Cl)cccc1Cl [DETQ, 2-(2,6-dichlorophenyl)-1-((1S,3R)-3-(hydroxymethyl)-5-(2-hydroxypropan-2-yl)-1-methyl-3,4-dihydroisoquinolin-2(1H)-yl)ethan-1-one]
- Grooming (index of stereotyped behavior) (hD1 mice): only modest changes that did not reach statistical significance
- Horizontal locomotion and rearing (hD1 mice): this increase was maintained up to the highest dose tested
- Top (%) (human D1 receptor): 75.6%
- EC50 (human D1 receptor; 0.7 nM dopamine): 11.4 nM
- Selectivity for the D1 receptor over D5 (human D5 receptor): > 1000 fold
- Activity at human D5 receptor (human D5 receptor; potentiator mode, up to 25 µM): inactive
- Top (%) [1]: 80.0%
- EC50 ([1]; 0.7 nM dopamine): 12 nM
- Stimulation at 5HT2B receptor, potentiator mode (5HT2B receptor; 1 µM): 5%
- inhibition at 1 µM (5HT2B receptor; 1 µM, read-out: Inhibition at 5HT2B receptor, antagonist mode): 13%
- Stimulation at 5HT2B receptor, potentiator mode (5HT2B receptor; 10 µM): 48%
- inhibition at 10 µM (5HT2B receptor; 10 µM, read-out: Inhibition at 5HT2B receptor, antagonist mode): 56%
